Experimental data as given in patent US20240425524A1, “SPIROTRICYCLE RIPK1 INHIBITORS AND METHODS OF USES THEREOF” (Merck Sharp & Dohme LLC, priority 2021, published 2024).

Biological target: RIPK1 (Homo sapiens (Human), UniProt Q13546)
Assay: RIPK1-ADP-Glo Enzymatic Assay
Assay type: biochemical
Conditions: recombinant GST-RIPK1 kinase domain (residues 1-327), 25 nM, ten-point titration, 30 minutes pre-incubation
Procedure: The enzymatic activity of RIPK1 was measured using an assay derived from ADP-Glo kit (™Promega), which provides a luminescent-based ADP detection system. Specifically, the ADP generated by RIPK1 kinase was proportionally detected as luminescent signals in a homogenous fashion. In this context, the assessment of the inhibitory effect of small molecules (EC50) was measured by the effectiveness of the compounds to inhibit the ATP to ADP conversion by RIPK1.
In this assay, the potency (EC50) of each compound was determined from a ten-point (1:3 serial dilution: top compound concentration of 100000 nM) titration curve using the following outlined procedure. To each well of a white ProxiPlus 384 well-plate, 30 nL of compound (1% DMSO in final assay volume of 3 μL) was dispensed, followed by the addition of 2 μL of 1x assay buffer (25 mM Hepes 7.3, 20 mM MgCl2, 50 mM NaCl, 1 mM DTT, 0.005% Tween20, and 0.02% BSA) containing 37.5 nM of GST-RIPK1 (recombinant GST-RIPK1 kinase domain (residues 1-327) enzyme produced from baculovirus-transfected Sf21 cells: MW=62 kDa). Plates were placed in an ambient temperature humidified chamber for a 30 minutes pre-incubation with compound. Subsequently, each reaction was initiated by the addition of 1 μL 1× assay buffer containing […] dephosphorylated-MBP substrate. The final reaction in each well of 3 μL consists of 25 nM of GST-RIPK1, 300 µM ATP, and 3 μM dephosphorylated-MBP. Kinase reactions were allowed to proceed for 150 minutes prior to adding ADP-Glo reagents per Promega's outlined kit protocol. Dose-response curves were generated by plotting percent effect (% product conversion: Y-axis) vs. Logio compound concentrations (X-axis). EC50 values were calculated using a non-linear regression, four-parameters sigmoidal dose-response model and are provided for example compounds of the invention (labeled “RIPK1 EC50 (nM)” throughout the above examples).

RIPK1, sequence (Q13546 1-327): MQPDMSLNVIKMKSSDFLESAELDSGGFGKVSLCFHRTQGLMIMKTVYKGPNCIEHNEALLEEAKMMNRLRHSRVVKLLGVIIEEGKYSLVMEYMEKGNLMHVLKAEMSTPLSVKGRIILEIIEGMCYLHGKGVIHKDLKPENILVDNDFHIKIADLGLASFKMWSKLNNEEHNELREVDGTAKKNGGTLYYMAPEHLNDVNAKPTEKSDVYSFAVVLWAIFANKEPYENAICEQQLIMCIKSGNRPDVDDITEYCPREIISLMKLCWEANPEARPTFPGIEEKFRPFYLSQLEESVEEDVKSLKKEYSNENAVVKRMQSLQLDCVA

SMILES	EC50 [µM]
O=C1N2[C@H](c3cc(F)cc(F)c3)CCN2CC12CCN(c1nc(Cl)nc3[nH]ncc13)CC2 [Example 1.53, (S)-1-(6-chloro-1H-pyrazolo[3,4-d]pyrimidin-4-yl)-7′-(3,5-difluorophenyl)dihydro-1′H,3′H,5′H-spiro[piperidine-4,2′-pyrazolo[1,2-a]pyrazol]-1′-one]	0.857
O=C1N2[C@H](c3cc(F)cc(F)c3)CCN2CC12CCN(c1cc(F)ccn1)CC2 [Example 1.3, (7′S)-7′-(3,5-difluorophenyl)-1-(4-fluoropyridin-2-yl)dihydro-1′H,3′H,5′H-spiro[piperidine-4,2′-pyrazolo[1,2-a]pyrazol]-1′-one]	0.019
CCc1cnc(N2CCC3(CC2)CN2CC[C@@H](c4cc(F)cc(F)c4)N2C3=O)nc1 [Example 1.28, (S)-7′-(3,5-difluorophenyl)-1-(5-ethylpyrimidin-2-yl)dihydro-1′H,3′H,5′H-spiro[piperidine-4,2′-pyrazolo[1,2-a]pyrazol]-1′-one]	0.409
CSc1cnc(N2CCC3(CC2)CN2CC[C@@H](c4cc(F)cc(F)c4)N2C3=O)nc1 [Example 1.22, (S)-7′-(3,5-difluorophenyl)-1-(5-(methylthio)pyrimidin-2-yl)dihydro-1′H,3′H,5′H-spiro [piperidine-4,2′-pyrazolo[1,2-a]pyrazol]-1′-one]	0.089
O=C1N2[C@H](c3cc(F)cc(F)c3)CCN2CC12CCN(c1cc(Br)cc(F)n1)CC2 [Example 1.60, (S)-1-(4-bromo-6-fluoropyridin-2-yl)-7′-(3,5-difluorophenyl)dihydro-1′H,3′H,5′H-spiro[piperidine-4,2′-pyrazolo[1,2-a]pyrazol]-1′-one]	0.017
NC(=O)c1ccnc(N2CCC3(CC2)CN2CC[C@@H](c4cc(F)cc(F)c4)N2C3=O)n1 [Example 1.24, (S)-2-(7′-(3,5-difluorophenyl)-1′-oxodihydro-1′H,3′H,5′H-spiro[piperidine-4,2′-pyrazolo[1,2-a]pyrazol]-1-yl)pyrimidine-4-carboxamide]	0.136
O=C1N2[C@H](c3cc(F)cc(F)c3)CCN2CC12CCN(c1cc(-c3cnn(C(F)F)c3)ncn1)CC2 [Example 1.87, (S)-1-(6-(1-(difluoromethyl)-1H-pyrazol-4-yl)pyrimidin-4-yl)-7′-(3,5-difluorophenyl)dihydro-1′H,3′H,5′H-spiro[piperidine-4,2′-pyrazolo[1,2-a]pyrazol]-1′-one]	0.006
N#Cc1cnc(N2CCC3(CC2)CN2CC[C@@H](c4cc(F)cc(F)c4)N2C3=O)nc1 [Example 1.76, (S)-2-(7′-(3,5-difluorophenyl)-1′-oxodihydro-1′H,3′H,5′H-spiro[piperidine-4,2′-pyrazolo[1,2-a]pyrazol]-1-yl)pyrimidine-5-carbonitrile]	0.035
COc1ccnc(N2CCC3(CC2)CN2CC[C@@H](c4cc(F)cc(F)c4)N2C3=O)n1 [Example 1.95, (S)-7′-(3,5-difluorophenyl)-1-(4-methoxypyrimidin-2-yl)dihydro-1′H,3′H,5′H-spiro[piperidine-4,2′-pyrazolo[1,2-a]pyrazol]-1′-one]	0.086
O=C1N2[C@H](c3cc(F)cc(F)c3)CCN2CC12CCN(c1cccc(F)n1)CC2 [Example 1.12, (7′S)-7′-(3,5-difluorophenyl)-1-(6-fluoropyridin-2-yl)dihydro-1′H,3′H,5′H-spiro[piperidine-4,2′-pyrazolo[1,2-a]pyrazol]-1′-one]	0.029
O=C1N2[C@H](c3cc(F)cc(F)c3)CCN2CC12CCN(c1cc(-c3ccccc3)ncn1)CC2 [Example 1.35, (S)-7′-(3,5-difluorophenyl)-1-(6-phenylpyrimidin-4-yl)dihydro-1′H,3′H,5′H-spiro[piperidine-4,2′-pyrazolo[1,2-a]pyrazol]-1′-one]	0.015
O=C1N2[C@H](c3cc(F)cc(F)c3)CCN2CC12CCN(c1cc(-n3cccn3)ncn1)CC2 [Example 1.17, (S)-1-(6-(1H-pyrazol-1-yl)pyrimidin-4-yl)-7′-(3,5-difluorophenyl)dihydro-1′H,3′H,5′H-spiro[piperidine-4,2′-pyrazolo[1,2-a]pyrazol]-1′-one]	0.02
N#Cc1ccnc(N2CCC3(CC2)CN2CC[C@@H](c4cc(F)cc(F)c4)N2C3=O)n1 [Example 1.75, (S)-2-(7′-(3,5-difluorophenyl)-1′-oxodihydro-1′H,3′H,5′H-spiro[piperidine-4,2′-pyrazolo[1,2-a]pyrazol]-1-yl)pyrimidine-4-carbonitrile]	0.049
Cc1ccnc(N2CCC3(CC2)CN2CC[C@@H](c4cc(F)cc(F)c4)N2C3=O)n1 [Example 1.27, (S)-7′-(3,5-difluorophenyl)-1-(4-methylpyrimidin-2-yl)dihydro-1′H,3′H,5′H-spiro[piperidine-4,2′-pyrazolo[1,2-a]pyrazol]-1′-one]	0.637
CNC(=O)c1ccnc(N2CCC3(CC2)CN2CC[C@@H](c4cc(F)cc(F)c4)N2C3=O)n1 [Example 1.90, (S)-2-(7′-(3,5-difluorophenyl)-1′-oxodihydro-1′H,3′H,5′H-spiro[piperidine-4,2′-pyrazolo[1,2-a]pyrazol]-1-yl)-N-methylpyrimidine-4-carboxamide]	0.106

Further lines, results first:

EC50 [µM]	SMILES
0.019	O=C(c1cc(F)c(F)cc1F)N1CCC2(CC1)CN1CC[C@@H](c3cc(F)cc(F)c3)N1C2=O [Example 4.11, (S)-7′-(3,5-difluorophenyl)-1-(2,4,5-trifluorobenzoyl) dihydro-1′H,3′H,5′H-spiro[piperidine-4,2′-pyrazolo[1,2-a]pyrazol]-l′-one]
0.006	O=C1N2[C@H](c3cc(F)cc(F)c3)CCN2CC12CCN(c1cccc(-n3nccc3C(F)(F)F)n1)CC2 [Example 2.12, (S)-7′-(3,5-difluorophenyl)-1-(6-(5-(trifluoromethyl)-1H-pyrazol-1-y1)pyridin-2-yl)dihydro-l′H,3′H,5′H-spiro[piperidine-4,2′-pyrazolo[1,2-a]pyrazol]-1′-one]
0.858	N#Cc1ccc(C(=O)N2CCC3(CC2)CN2CC[C@@H](c4cc(F)cc(F)c4)N2C3=O)cc1F [Example 4.15, (S)-4-(7′-(3,5-difluorophenyl)-1′-oxodihydro-1′H,3′H,5′H-spiro[piperidine-4,2′-pyrazolo[1,2-a]pyrazole]-1-carbonyl)-2-fluorobenzonitrile]
0.118	Cc1ccn(-c2ccnc(N3CCC4(CC3)CN3CC[C@@H](c5cc(F)cc(F)c5)N3C4=O)c2)n1 [Example 2.5, (S)-7′-(3,5-difluorophenyl)-1-(4-(3-methyl-1H-pyrazol-1-yl)pyridin-2-yl)dihydro-1′H,3′H,5′H-spiro[piperidine-4,2′-pyrazolo[1,2-a]pyrazol]-1′-one]
0.067	O=C(c1cc(F)c(F)c(F)c1)N1CCC2(CC1)CN1CC[C@@H](c3cc(F)cc(F)c3)N1C2=O [Example 4.10, (S)-7′-(3,5-difluorophenyl)-1-(3,4,5-trifluorobenzoyl) dihydro-1′H,3′H,5′H-spiro[piperidine-4,2′-pyrazolo[1,2-a]pyrazol]-l′-one]
0.096	O=C1N2[C@H](c3cc(F)cc(F)c3)CCN2CC12CCN(c1cnc(-c3cccc(Cl)c3)cn1)CC2 [Example 2.17, (S)-1-(5-(3-chlorophenyl)pyrazin-2-yl)-7′-(3,5-difluorophenyl)dihydro-1′H,3′H,5′H-spiro[piperidine-4,2′-pyrazolo[1,2-a]pyrazol]-1′-one]
0.009	N#Cc1ccc(N2CCC3(CC2)CN2CC[C@@H](c4cc(F)cc(F)c4)N2C3=O)c2ccnn12 [Example 2.2, (S)-4-(7′-(3,5-difluorophenyl)-1′-oxodihydro-l′H,3′H,5′H-spiro[piperidine-4,2′-pyrazolo[1,2-a]pyrazol]-1-yl)pyrazolo[1,5-a]pyridine-7-carbonitrile]
0.083	COc1ccc(C(=O)N2CCC3(CC2)CN2CC[C@@H](c4cc(F)cc(F)c4)N2C3=O)cc1F [Example 4.16, (S)-7′-(3,5-difluorophenyl)-1-(3-fluoro-4-methoxybenzoyl) dihydro-l′H,3′H,5′H-spiro[piperidine-4,2′-pyrazolo[1,2-a]pyrazol]-l′-one]
0.209	O=C(c1cccnc1)N1CCC2(CC1)CN1CC[C@@H](c3cc(F)cc(F)c3)N1C2=O [Example 4.4, (S)-7′-(3,5-difluorophenyl)-1-nicotinoyldihydro-1′H,3′H,5′H-spiro[piperidine-4,2′-pyrazolo[1,2-a]pyrazol]-l′-one]
0.017	Cc1ccn(-c2cccc(N3CCC4(CC3)CN3CC[C@@H](c5cc(F)cc(F)c5)N3C4=O)n2)n1 [Example 2.13, (S)-7′-(3,5-difluorophenyl)-1-(6-(3-methyl-1H-pyrazol-1-yl)pyridin-2-yl)dihydro-1′H,3′H,5′H-spiro[piperidine-4,2′-pyrazolo[1,2-a]pyrazol]-1′-one]
0.446	O=C(c1cncc(F)c1)N1CCC2(CC1)CN1CC[C@@H](c3cc(F)cc(F)c3)N1C2=O [Example 4.17, (S)-7′-(3,5-difluorophenyl)-1-(5-fluoronicotinoyl) dihydro-1′H,3′H,5′H-spiro[piperidine-4,2′-pyrazolo[1,2-a]pyrazol]-l′-one]
